Results taken from US9751887B2, “Imidazo[1,2-b]pyridazine derivatives as kinase inhibitors” (Daiichi Sankyo Company, Limited, priority 2012, dated 2017).

Legend:
ROS1 [1] = molecular target: T1, ROS1 (Homo sapiens, UniProt P08922); experiment: ROS1 kinase inhibitory activity evaluation (mobility shift, EZ Reader II); format: biochemical; details: ROS1 25 pg/μL, FL-Peptide 22 substrate, three separate measurements
T1 construct: purchased Carna Biosciences 08-163
Description: Next, a substrate reaction solution was prepared. […] Then, the reaction stop solution was added thereto at a concentration of 40 μL/well. Substrate phosphorylation intensity was measured using EZ Reader II (Caliper Life Sciences).

ROS1 [2] = molecular target: T1, ROS1; experiment: ROS1 autophosphorylation inhibitory activity evaluation (ADP-Glo); format: biochemical; details: 200 nM inactive ROS1, ATP 1 mM, 25° C. 1.5 hours, ADP generated, four separate measurements
Outline: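 IC50 was derived by curve fitting of ADP output measured with ADP-Glo reagents. The output reflects ROS1 self-phosphorylation over 1.5 hours at 25° C. Buffer was HEPES pH 7.5 with MgCl2, Brij-58 and DTT, and ATP was 1 mM final.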

[3] = test system: HCC78 cells having ROS1 fusion gene; experiment: HCC78 cell growth assay (CellTiter-Glo); format: cell-based; details: Homo sapiens, HCC78, 72 h, 72 hours culture, 2% FBS medium, luminescence, four separate measurements; read-out: growth inhibitory effect on HCC78 cells having ROS1 fusion gene IC50

T1 sequence (P08922 28-2347): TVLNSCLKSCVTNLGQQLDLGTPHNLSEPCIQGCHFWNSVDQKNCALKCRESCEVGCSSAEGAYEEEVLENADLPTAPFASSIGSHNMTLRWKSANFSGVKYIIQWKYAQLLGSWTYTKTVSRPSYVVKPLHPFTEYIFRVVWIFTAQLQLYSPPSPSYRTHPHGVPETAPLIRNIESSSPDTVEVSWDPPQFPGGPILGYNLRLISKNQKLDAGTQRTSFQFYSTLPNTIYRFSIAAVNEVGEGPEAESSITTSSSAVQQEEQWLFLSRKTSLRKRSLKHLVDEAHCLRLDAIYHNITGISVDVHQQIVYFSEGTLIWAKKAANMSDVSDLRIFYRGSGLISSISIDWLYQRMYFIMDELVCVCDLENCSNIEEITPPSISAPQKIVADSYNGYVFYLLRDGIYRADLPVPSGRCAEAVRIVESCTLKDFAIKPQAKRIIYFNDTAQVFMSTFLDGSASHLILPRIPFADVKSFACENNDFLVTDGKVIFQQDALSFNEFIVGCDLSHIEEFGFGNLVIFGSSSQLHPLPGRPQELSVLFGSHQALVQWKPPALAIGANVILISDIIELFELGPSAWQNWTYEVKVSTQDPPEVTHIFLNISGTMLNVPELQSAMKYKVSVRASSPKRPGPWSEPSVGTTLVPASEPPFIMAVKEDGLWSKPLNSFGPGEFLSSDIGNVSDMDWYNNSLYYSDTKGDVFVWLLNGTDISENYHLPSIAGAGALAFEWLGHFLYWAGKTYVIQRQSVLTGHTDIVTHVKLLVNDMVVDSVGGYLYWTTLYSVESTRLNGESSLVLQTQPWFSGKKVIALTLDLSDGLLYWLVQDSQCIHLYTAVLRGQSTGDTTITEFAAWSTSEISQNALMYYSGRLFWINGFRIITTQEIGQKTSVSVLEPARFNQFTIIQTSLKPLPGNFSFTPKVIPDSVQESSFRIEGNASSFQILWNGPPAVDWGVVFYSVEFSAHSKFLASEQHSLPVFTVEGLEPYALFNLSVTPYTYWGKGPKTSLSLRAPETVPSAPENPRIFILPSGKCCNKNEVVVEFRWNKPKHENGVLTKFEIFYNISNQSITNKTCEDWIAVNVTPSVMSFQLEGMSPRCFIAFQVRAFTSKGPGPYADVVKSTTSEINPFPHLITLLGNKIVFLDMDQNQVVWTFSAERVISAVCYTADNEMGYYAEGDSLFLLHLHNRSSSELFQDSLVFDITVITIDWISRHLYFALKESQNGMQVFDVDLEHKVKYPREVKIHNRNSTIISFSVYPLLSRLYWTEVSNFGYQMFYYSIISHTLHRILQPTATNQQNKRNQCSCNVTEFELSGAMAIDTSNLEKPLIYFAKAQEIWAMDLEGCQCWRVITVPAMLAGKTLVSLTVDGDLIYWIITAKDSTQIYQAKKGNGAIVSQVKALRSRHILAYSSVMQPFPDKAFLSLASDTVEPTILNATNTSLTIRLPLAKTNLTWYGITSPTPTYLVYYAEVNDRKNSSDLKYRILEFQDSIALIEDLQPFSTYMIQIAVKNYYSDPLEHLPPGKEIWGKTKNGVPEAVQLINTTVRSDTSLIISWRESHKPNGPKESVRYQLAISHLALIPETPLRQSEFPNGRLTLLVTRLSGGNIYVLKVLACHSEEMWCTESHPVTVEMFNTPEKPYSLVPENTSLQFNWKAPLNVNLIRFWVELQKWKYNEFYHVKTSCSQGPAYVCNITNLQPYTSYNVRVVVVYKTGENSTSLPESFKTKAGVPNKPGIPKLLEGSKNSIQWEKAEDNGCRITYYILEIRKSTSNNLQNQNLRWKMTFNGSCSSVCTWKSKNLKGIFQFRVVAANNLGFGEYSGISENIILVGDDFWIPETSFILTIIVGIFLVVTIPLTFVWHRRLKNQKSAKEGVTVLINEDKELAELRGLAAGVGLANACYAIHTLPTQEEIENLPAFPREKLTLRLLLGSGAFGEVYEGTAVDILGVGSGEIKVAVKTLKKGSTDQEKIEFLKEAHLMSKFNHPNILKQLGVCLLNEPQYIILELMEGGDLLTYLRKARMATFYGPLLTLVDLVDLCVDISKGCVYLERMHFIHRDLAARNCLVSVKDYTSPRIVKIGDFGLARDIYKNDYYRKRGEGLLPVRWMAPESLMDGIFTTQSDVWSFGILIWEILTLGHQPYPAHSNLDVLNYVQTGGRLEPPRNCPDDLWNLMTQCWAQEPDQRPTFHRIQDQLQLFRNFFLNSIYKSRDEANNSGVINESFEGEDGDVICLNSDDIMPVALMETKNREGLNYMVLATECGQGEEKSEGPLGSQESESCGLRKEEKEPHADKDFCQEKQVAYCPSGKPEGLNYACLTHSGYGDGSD

SMILES | IC50 (ROS1 [1]) [nM] | IC50 (ROS1 [2]) [nM] | IC50 [3] [nM]
CC[C@@H](N)COc1ccc(-c2cnc3ccc(N[C@H](C)c4cccc(F)c4)nn23)cc1 [Example 52, 3-[4-[(2R)-2-Aminobutoxy]phenyl]-N-[(1R)-1-(3-fluorophenyl)ethyl]imidazo[1,2-b]pyridazin-6-amine] | < 1 | < 20 | 20 to 100
CN(Cc1cccc(F)c1)c1ccc2ncc(-c3ccc(N4C[C@@H](N)CC4=O)nc3)n2n1 [Example 128, (4S)-4-Amino-1-[5-[6-[(3-fluorophenyl)methyl-methylamino]imidazo[1,2-b]pyridazin-3-yl]-2-pyridyl]pyrrolidin-2-one] | < 1 | < 20 | 20 to 100
OCCN1CCC[C@H]1COc1cccc(-c2cnc3ccc(NCc4ccccc4)nn23)c1 [Example 7, 2-[(2S)-2-[[3-[6-(Benzylamino)imidazo[1,2-b]pyridazin-3-yl]phenoxy]methyl]pyrrolidin-1-yl]ethanol] | 1 to 10 | 100 to 150 | 20 to 100
CC[C@H](N)COc1ccc(-c2cnc3ccc(N[C@H](C)c4cccc(F)c4)nn23)cc1 [Example 49, 3-[4-[(2S)-2-Aminobutoxy]phenyl]-N-[(1R)-1-(3-fluorophenyl)ethyl]imidazo[1,2-b]pyridazin-6-amine] | < 1 | < 20 | < 20
Cc1cc(-c2cnc3ccc(OC(C)c4cncc(F)c4)nn23)ccc1N1C[C@@H](N)CC1=O (stereo partly drawn) [Example 111] | 1 to 10 | 20 to 100 | 20 to 100
c1ccc(CNc2ccc3ncc(-c4cccc(OC[C@@H]5CCCN5)c4)n3n2)cc1 [Example 2, N-Benzyl-3-[3-[[(2S)-pyrrolidin-2-yl]methoxy]phenyl]imidazo[1,2-b]pyridazin-6-amine] | 1 to 10 | 20 to 100 | 100 to 600
C[C@@H](Oc1ccc2ncc(-c3ccc(N4C[C@H](N)CC4=O)cc3)n2n1)c1cccc(F)c1 [Example 78, (4R)-4-Amino-1-[4-[6-[(1R)-1-(3-fluorophenyl)ethoxy]imidazo[1,2-b]pyridazin-3-yl]phenyl]pyrrolidin-2-one] | 1 to 10 | < 20 | 20 to 100
CC(Oc1ccc2ncc(-c3ccc(N4C[C@@H](N)CC4=O)cc3)n2n1)c1nccs1 (stereo partly drawn) [Example 105, (4S)-4-Amino-1-[4-[6-(1-thiazol-2-ylethoxy)imidazo[1,2-b]pyridazin-3-yl]phenyl]pyrrolidin-2-one] | 10 to 60 | 20 to 100 | 100 to 600
Fc1cccc(COc2ccc3ncc(-c4ccc(OC[C@H]5CCCN5)cc4)n3n2)c1 [Example 11, 6-[(3-Fluorophenyl)methoxy]-3-[4-[[(2R)-pyrrolidin-2-yl]methoxy]phenyl]imidazo[1,2-b]pyridazine] | 1 to 10 | 20 to 100 | 100 to 600
Cc1ccc(F)cc1COc1ccc2ncc(-c3ccc(N4C[C@@H](N)CC4=O)cc3)n2n1 [Example 103, (4S)-4-Amino-1-[4-[6-[(5-fluoro-2-methylphenyl)methoxy]imidazo[1,2-b]pyriazin-3-yl]phenyl]pyrrolidin-2-one] | 1 to 10 | 20 to 100 | 20 to 100
CN(Cc1cncc(F)c1Cl)c1ccc2ncc(-c3ccc(N4C[C@@H](N)CC4=O)cc3)n2n1 [Example 126, (4S)-4-Amino-1-[4-[6-[(4-chloro-5-fluoro-3-pyridyl)methyl-methylamino]imidazo[1,2-b]pyridazin-3-yl]phenyl]pyrrolidin-2-one] | 1 to 10 | 20 to 100 | 20 to 100
C[C@@H](Nc1ccc2ncc(-c3ccc(N4C[C@@H](N)CC4=O)c(F)c3)n2n1)c1cccc(F)c1 [Example 92, (4S)-4-Amino-1-[2-fluoro-4-[6-[[(1R)-1-(3-fluorophenyl)ethyl]amino]imidazo[1,2-b]pyridazin-3-yl]phenyl]pyrrolidin-2-one] | < 1 | < 20 | < 20
CN[C@H]1CC(=O)N(c2ccc(-c3cnc4ccc(O[C@H](C)c5cncc(F)c5)nn34)cc2)C1 [Example 108, (4S)-1-[4-[6-[(1R)-1-(5-Fluoro-3-pyridyl)ethoxy]imidazo[1,2-b]pyridazin-3-yl]phenyl]-4-(methylamino)pyrrolidin-2-one] | 1 to 10 | 20 to 100 | 20 to 100
C[C@@H](Nc1ccc2ncc(-c3ccc(OC[C@@H]4CCCN4)c(C#N)c3)n2n1)c1cccc(F)c1 [Example 48, 5-[6-[[(1R)-1-(3-Fluorophenyl)ethyl]amino]imidazo[1,2-b]pyridazin-3-yl]-2-[[(2S)-pyrrolidin-2-yl]methoxy]benzonitrile] | < 1 | < 20 | < 20
CN[C@H]1CC(=O)N(c2ccc(-c3cnc4ccc(O[C@H](C)c5cccc(F)c5)nn34)cc2)C1 [Example 80, (4S)-1-[4-[6-[(1R)-1-(3-Fluorophenyl)ethoxy]imidazo[1,2-b]pyridazin-3-yl]phenyl]-4-(methylamino)pyrrolidin-2-one] | < 1 | < 20 | 20 to 100
C[C@@H](Nc1ccc2ncc(-c3ccc(O[C@H]4C[C@H](N)C4)cc3)n2n1)c1cccc(F)c1 [Example 51] | 1 to 10 | < 20 | 20 to 100
CN(Cc1cccc(C#N)c1)c1ccc2ncc(-c3ccc(N4C[C@@H](N)CC4=O)cc3)n2n1 [Example 121, 3-[[[3-[4-[(4S)-4-Amino-2-oxopyrrolidin-1-yl]phenyl]imidazo[1,2-b]pyridazin-6-yl]-methylamino]methyl]benzonitrile] | 1 to 10 | 20 to 100 | 20 to 100
C[C@@H](Nc1ccc2ncc(-c3ccc(OC[C@H](N)CO)cc3)n2n1)c1cccc(F)c1 [Example 59, (2R)-2-Amino-3-[4-[6-[[(1R)-1-(3-fluorophenyl)ethyl]amino]imidazo[1,2-b]pyridazin-3-yl]phenoxy]propan-1-ol] | < 1 | < 20 | < 20
NC1CC(=O)N(c2ccc(-c3cnc4ccc(NCc5ccccc5)nn34)cc2)C1 (stereo not drawn) [Example 72, 4-Amino-1-[4-[6-(benzylamino)imidazo[1,2-b]pyridazin-3-yl]phenyl]pyrrolidin-2-one] | < 1 | < 20 | < 20
c1ccc(CNc2ccc3ncc(-c4ccc(OC[C@@H]5CCNC5)cc4)n3n2)cc1 [Example 5, N-Benzyl-3-[4-[[(3R)-pyrrolidin-3-yl]methoxy]phenyl]imidazo[1,2-b]pyridazin-6-amine] | 1 to 10 | 20 to 100 | 20 to 100
CNCCCOc1cccc(-c2cnc3ccc(N[C@H](C)c4cccc(F)c4)nn23)c1 [Example 66, N-[(1R)-1-(3-Fluorophenyl)ethyl]-3-[3-[3-(methylamino)propoxy]phenyl]imidazo[1,2-b]pyridazin-6-amine] | 1 to 10 | < 20 | 20 to 100
NC1CC(=O)N(c2ccc(-c3cnc4ccc(OCc5cccc(F)c5)nn34)cc2)C1 (stereo not drawn) [Example 73, 4-Amino-1-[4-[6-[(3-fluorophenyl)methoxy]imidazo[1,2-b]pyridazin-3-yl]phenyl]pyrrolidin-2-one] | 1 to 10 | < 20 | 20 to 100
C[C@@H](N)COc1ccc(-c2cnc3ccc(N[C@H](C)c4cccc(F)c4)nn23)cn1 [Example 53, 3-[6-[(2R)-2-Aminopropoxy]-3-pyridyl]-N-[(1R)-1-(3-fluorophenyl)ethyl]imidazo[1,2-b]pyridazin-6-amine] | < 1 | < 20 | < 20
CN(Cc1cccc(F)c1)c1ccc2ncc(-c3ccc(N4CC(C)(N)CC4=O)cc3)n2n1 (stereo not drawn) [Example 84, 4-Amino-1-[4-[6-[(3-fluorophenyl)methyl-methylamino]imidazo[1,2-b]pyridazin-3-yl]phenyl]-4-methylpyrrolidin-2-one] | 1 to 10 | 20 to 100 | 20 to 100
C[C@@H](Oc1ccc2ncc(-c3ccc(N4C[C@@H](N)CC4=O)cc3F)n2n1)c1cncc(F)c1 [Example 110, (4S)-4-Amino-1-[3-fluoro-4-[6-[(1R)-1-(5-fluoro-3-pyridyl)ethoxy]imidazo[1,2-b]pyridazin-3-yl]phenyl]pyrrolidin-2-one] | 1 to 10 | < 20 | 20 to 100
C[C@H](N)COc1cccc(-c2cnc3ccc(N[C@H](C)c4cccc(F)c4)nn23)c1 [Example 65, 3-[3-[(2S)-2-Aminopropoxy]phenyl]-N-[(1R)-1-(3-fluorophenyl)ethyl]imidazo[1,2-b]pyridazin-6-amine] | 1 to 10 | < 20 | 20 to 100
CN(Cc1cccc(F)c1F)c1ccc2ncc(-c3ccc(N4C[C@@H](N)CC4=O)cc3)n2n1 [Example 98, (4S)-4-Amino-1-[4-[6-[(2,3-difluorophenyl)methyl-methylamino]imidazo[1,2-b]pyridazin-3-yl]phenyl]pyrrolidin-2-one] | 1 to 10 | < 20 | 20 to 100
C[C@@H](Nc1ccc2ncc(-c3ccc(OCC4CNC4)cc3)n2n1)c1cccc(F)c1 [Example 27, 3-[4-(Azetidin-3-ylmethoxy)phenyl]-N-[(1R)-1-(3-fluorophenyl)ethyl]imidazo[1,2-b]pyridazin-6-amine] | 1 to 10 | < 20 | 100 to 600
